In US20240376097A1, “BCL-2 Inhibitor” (BeiGene Ltd., priority 2020, published 2024):

Experiments:
[1] = system: RS4;11 (BCL-2 dependent acute lymphoblastic leukemia cell line); test: RS4;11 Cell Proliferation Assay; assay type: cell-based; settings: Homo sapiens, RS4-11, RS4;11 cells, read-out: Cellular proliferation assay (IC50, nM) RS4
Procedure, shortened: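 RS4;11 cells, 50,000 per well in RPMI-1640 with 10% FBS, treated 48 h at 37 °C with a 10-point dilution series topping at 1 μM. Viability read by CellTiter-Glo ATP luminescence; mean IC50 reported.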

[2] = system: BCL-2 G101V knock-in cell line H96 (derive from RS4;11); test: Bcl 2-G101V Knock-In RS4;11 Cell Proliferation Assay; assay type: cell-based; settings: Homo sapiens, RS4;11 Bcl-2 G101V knock-in clone H96, 48 hrs, CellTiter-GLO, read-out: Cellular proliferation assay (IC50, nM) RS4
Procedure, shortened: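 H96, a CRISPR-generated RS4;11 clone carrying BCL2-G101V knock-in (WES/RNA-seq validated), seeded 50,000 per well and exposed 48 h at 37 °C to 10-point dilutions topping at 1 or 10 μM. Viability by CellTiter-Glo luminescence; mean IC50.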

[3] = target: Recombinant human Bcl-2 protein (Homo sapiens (Human), UniProt P10415); test: Bcl-2 TR-FRET Assay; assay type: binding; settings: Bcl-2 wild type, TR-FRET; read-out: Biochemical assay (IC50, nM) Bcl-2 WT
Procedure, shortened: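 0.05 nM Bcl-2 pre-incubated 0.5 h at room temperature with 10-point compound dilutions (top final 1, 0.1, 0.02 or 0.01 uM) in 20 mM potassium phosphate pH 7.5, 50 mM NaCl, 1 mM EDTA, 0.05% Tween-20, 0.01% BSA; FITC-Bak peptide (0.5 nM) and anti-6His Tb cryptate added, 1 h. IC50 from four-parameter logistic fit.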

[4] = target: recombinant human Bcl-2-G101V protein (Homo sapiens (Human), UniProt P10415, G101V); test: Bcl-2-G101V TR-FRET Assay; assay type: binding; settings: Bcl-2 G101V mutant, TR-FRET; read-out: Biochemical assay (IC50, nM) Bcl-2 G101V
Procedure, shortened: (§1)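 Measures how compounds block Bcl-2-G101V engaging its ligand, by TR-FRET with 337 nm excitation and a 490/520 nm emission ratio; dose-response data give IC50 via a four-parameter logistic model.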

[5] = system: recombinant human Bcl-2-G101V protein; test: Bcl-2-G101V TR-FRET Assay; assay type: binding; settings: ratio of biochemical IC50 Bcl-2 G101V / Bcl-2 WT
Procedure, shortened: as §1

Compound | IC50 [1] | IC50 [2] | IC50 [3] | IC50 [4] | Ratio of Bcl-2 G101V/WT [5]
COc1cc(CN2CCN(C3CC4(C3)CN(c3ccc(C(=O)NS(=O)(=O)c5ccc(NC[C@H]6CC[C@](C)(O)CC6)c([N+](=O)[O-])c5)c(Oc5cnc6[nH]cc(F)c6c5)c3)C4)[C@H](c3ccccc3C(C)C)C2)ccc1Cl [Example 325, 4-(6-((R)-4-(4-chloro-3-methoxybenzyl)-2-(2-isopropylphenyl)piperazin-1-yl)-2-azaspiro[3.3]heptan-2-yl)-2-((3-fluoro-1H-pyrrolo[2,3-b]pyridin-5-yl)oxy)-N-((4-((((1r,4r)-4-hydroxy-4-methylcyclohexyl)methyl)amino)-3-nitrophenyl)sulfonyl) benzamide] | 0.21 nM | 0.53 nM | 0.49 nM | 0.97 nM | 2
COc1cc(CN2CCN(C3CC4(C3)CN(c3ccc(C(=O)NS(=O)(=O)c5ccc(NC[C@H]6CC[C@](C)(O)CC6)c([N+](=O)[O-])c5)c(Oc5cnc6[nH]ccc6c5)c3)C4)[C@H](c3ccccc3C(C)C)C2)cc2c1OC(C)(C)C=C2 [Example 329, 2-((1H-pyrrolo[2,3-b]pyridin-5-yl)oxy)-N-((4-((((1r,4r)-4-hydroxy-4-methylcyclohexyl)methyl)amino)-3-nitrophenyl)sulfonyl)-4-(6-((R)-2-(2-isopropylphenyl)-4-((8-methoxy-2,2-dimethyl-2H-chromen-6-yl)methyl)piperazin-1-yl)-2-azaspiro[3.3]heptan-2-yl) benzamide] | 0.25 nM | 1.3 nM | 0.15 nM | 0.47 nM | 3.1
COc1cc(CN2CCN(C3CC4(C3)CN(c3ccc(C(=O)NS(=O)(=O)c5ccc(NC[C@H]6CC[C@](C)(O)CC6)c([N+](=O)[O-])c5)c(Oc5cnc6[nH]cc(F)c6c5)c3)C4)[C@H](c3ccccc3C(C)C)C2)cc2c1OC(C)(C)C=C2 [Example 330, 2-((3-fluoro-1H-pyrrolo[2,3-b]pyridin-5-yl)oxy)-N-((4-((((1r,4r)-4-hydroxy-4-methylcyclohexyl)methyl)amino)-3-nitrophenyl)sulfonyl)-4-(6-((R)-2-(2-isopropylphenyl)-4-((8-methoxy-2,2-dimethyl-2H-chromen-6-yl)methyl)piperazin-1-yl)-2-azaspiro [3.3]heptan-2-yl)benzamide] | 0.18 nM | 0.79 nM | 0.26 nM | 0.62 nM | 2.4
COc1cc(CN2CCN(C3CC4(C3)CN(c3ccc(C(=O)NS(=O)(=O)c5ccc(NC[C@H]6CC[C@](C)(O)CC6)c([N+](=O)[O-])c5)c(Oc5cnc6[nH]ccc6c5)c3)C4)[C@H](c3ccccc3C(C)C)C2)cc2occc12 [Example 331, 2-((1H-pyrrolo[2,3-b]pyridin-5-yl)oxy)-N-((4-((((1r,4r)-4-hydroxy-4-methylcyclohexyl)methyl)amino)-3-nitrophenyl)sulfonyl)-4-(6-((R)-2-(2-isopropylphenyl)-4-((4-methoxybenzofuran-6-yl)methyl)piperazin-1-yl)-2-azaspiro[3.3]heptan-2-yl)benzamide] | 0.16 nM | 0.69 nM | 0.29 nM | 0.62 nM | 2.1
COc1cc(CN2CCN(C3CC4(C3)CN(c3ccc(C(=O)NS(=O)(=O)c5ccc(NC[C@H]6CC[C@](C)(O)CC6)c([N+](=O)[O-])c5)c(Oc5cnc6[nH]cc(F)c6c5)c3)C4)[C@H](c3ccccc3C(C)C)C2)cc2occc12 [Example 332, 2-((3-fluoro-1H-pyrrolo[2,3-b]pyridin-5-yl)oxy)-N-((4-((((1r,4r)-4-hydroxy-4-methylcyclohexyl)methyl)amino)-3-nitrophenyl)sulfonyl)-4-(6-((R)-2-(2-isopropylphenyl)-4-((4-methoxybenzofuran-6-yl)methyl)piperazin-1-yl)-2-azaspiro[3.3]heptan-2-yl)benzamide] | 0.17 nM | 0.54 nM | 0.7 nM | 1.1 nM | 1.6
COc1cc(CN2CCN(C3CC4(C3)CN(c3ccc(C(=O)NS(=O)(=O)c5ccc(NC[C@H]6CC[C@](C)(O)CC6)c([N+](=O)[O-])c5)c(Oc5cnc6[nH]cc(F)c6c5)c3)C4)[C@H](c3ccccc3C(C)C)C2)cc2c1OCCC2(C)C [Example 333, 2-((3-fluoro-1H-pyrrolo[2,3-b]pyridin-5-yl)oxy)-N-((4-((((1r,4r)-4-hydroxy-4-methylcyclohexyl)methyl)amino)-3-nitrophenyl)sulfonyl)-4-(6-((R)-2-(2-isopropylphenyl)-4-((8-methoxy-4,4-dimethylchroman-6-yl)methyl)piperazin-1-yl)-2-azaspiro[3.3]heptan-2-yl) benzamide] | 0.13 nM | 0.26 nM | 0.11 nM | 0.37 nM | 3.2
COc1cc(CN2CCN(C3CC4(C3)CN(c3ccc(C(=O)NS(=O)(=O)c5ccc(NC[C@H]6CC[C@](C)(O)CC6)c([N+](=O)[O-])c5)c(Oc5cnc6[nH]ccc6c5)c3)C4)[C@H](c3ccccc3C(C)C)C2)cc2c1OCCC2(C)C [Example 334] | 0.17 nM | 0.65 nM | 0.12 nM | 0.33 nM | 2.8
COc1cc(CN2CCN(C3CC4(C3)CN(c3ccc(C(=O)NS(=O)(=O)c5ccc(NC[C@H]6CC[C@](C)(O)CC6)c([N+](=O)[O-])c5)c(Oc5cnc6[nH]cc(F)c6c5)c3)C4)[C@H](c3ccccc3C(C)C)C2)cc2c1OCCCO2 [Example 335, 2-((3-fluoro-1H-pyrrolo[2,3-b]pyridin-5-yl)oxy)-N-((4-((((1r,4r)-4-hydroxy-4-methylcyclohexyl)methyl)amino)-3-nitrophenyl)sulfonyl)-4-(6-((R)-2-(2-isopropylphenyl)-4-((9-methoxy-3,4-dihydro-2H-benzo[b][1,4]dioxepin-7-yl)methyl)piperazin-1-yl)-2-azaspiro[3.3]heptan-2-yl) benzamide] | 0.17 nM | 0.34 nM | 0.06 nM | 0.15 nM | 2.6
COc1cc(CN2CCN(C3CC4(C3)CN(c3ccc(C(=O)NS(=O)(=O)c5ccc(NC[C@H]6CC[C@](C)(O)CC6)c([N+](=O)[O-])c5)c(Oc5cnc6[nH]ccc6c5)c3)C4)[C@H](c3ccccc3C(C)C)C2)cc2c1OC(C)(C)CC2 [Example 336, 2-((1H-pyrrolo[2,3-b]pyridin-5-yl)oxy)-N-((4-((((1r,4r)-4-hydroxy-4-methylcyclohexyl)methyl)amino)-3-nitrophenyl)sulfonyl)-4-(6-((R)-2-(2-isopropylphenyl)-4-((8-methoxy-2,2-dimethylchroman-6-yl)methyl)piperazin-1-yl)-2-azaspiro[3.3]heptan-2-yl) benzamide] | 0.2 nM | 1.1 nM | 0.09 nM | 0.38 nM | 4.2
COc1cc(CN2CCN(C3CC4(C3)CN(c3ccc(C(=O)NS(=O)(=O)c5ccc(NC[C@H]6CC[C@](C)(O)CC6)c([N+](=O)[O-])c5)c(Oc5cnc6[nH]cc(F)c6c5)c3)C4)[C@H](c3ccccc3C(C)C)C2)ccc1C1CCC1 [Example 341, 4-(6-((R)-4-(4-cyclobutyl-3-methoxybenzyl)-2-(2-isopropylphenyl)piperazin-1-yl)-2-azaspiro[3.3]heptan-2-yl)-2-((3-fluoro-1H-pyrrolo[2,3-b]pyridin-5-yl)oxy)-N-((4-((((1r,4r)-4-hydroxy-4-methylcyclohexyl)methyl)amino)-3-nitrophenyl)sulfonyl)benzamide] | 0.12 nM | 0.68 nM | 1.6 nM | 4.5 nM | 2.8
COc1cc(CN2CCN(C3CC4(C3)CN(c3ccc(C(=O)NS(=O)(=O)c5ccc(NC[C@H]6CC[C@](C)(O)CC6)c([N+](=O)[O-])c5)c(Oc5cnc6[nH]ccc6c5)c3)C4)[C@H](c3ccccc3C(C)C)C2)ccc1C1CCC1 [Example 342, 2-((1H-pyrrolo[2,5-b]pyridin-5-yl)oxy)-4-(6-((R)-4-(4-cyclobutyl-3-methoxybenzyl)-2-(2-isopropylphenyl)piperazin-1-yl)-2-azaspiro[3.3]heptan-2-yl)-N-((4-((((1r,4r)-4-hydroxy-4-methylcyclohexyl)methyl)amino)-3-nitrophenyl)sulfonyl)benzamide] | 0.28 nM | 2 nM | 0.97 nM | 3.3 nM | 2.9
COC12CC3CC(CC(CN4CCN(C5CC6(C5)CN(c5ccc(C(=O)NS(=O)(=O)c7ccc(NC[C@H]8CC[C@](C)(O)CC8)c([N+](=O)[O-])c7)c(Oc7cnc8[nH]cc(F)c8c7)c5)C6)[C@H](c5ccccc5C(C)C)C4)(C3)C1)C2 [Example 352] | 0.45 nM | 4.56 nM | 0.52 nM | 2.2 nM | 4.2
